Test results as given in PubChem BioAssay (NCI).
In brackets after ≈: the same amount, converted by molar mass.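 1) Cells in 96-well plates. 2) Compound, 48 h, 5 concentrations. 3) Linear interpolation between surrounding doses. 4) Unreached endpoint = highest concentration. Here, GI50 denotes the concentration required for 50% inhibition of growth. TGI: concentration producing complete growth inhibition.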 Where a SMILES comes first, the peptide text is derived from it. The star is where a group is joined. OBn = c1ccc(CO*)cc1

Key:
Test in all cases: DTP human tumour cell line panel, 48 h; in the data active means GI50 below about 0.43 µM; inactive means the rest
[1] = system: MDA-N
[2] = system: CCRF-CEM leukemia
[3] = system: UO-31 renal
[4] = system: NCI-H23 lung
[5] = system: HCT-116 colon
[6] = system: PC-3 prostate
[7] = system: UACC-257 melanoma
[8] = system: T-47D breast
[9] = system: OVCAR-8 ovarian
[10] = system: SNB-75 CNS
[11] = system: K-562 leukemia
[12] = system: 786-0 renal
[13] = system: U251 CNS
[14] = system: MOLT-4 leukemia
[15] = system: A498 renal
[16] = system: NCI/ADR-RES ovarian
[17] = system: HOP-62 NSCLC
[18] = system: MCF7 breast
[19] = system: ACHN renal
[20] = system: UACC-62 melanoma
[21] = system: BT-549 breast
[22] = system: LOX IMVI melanoma
[23] = system: SF-295 CNS
[24] = system: SK-OV-3 ovarian
[25] = system: CAKI-1 renal
[26] = system: A549 NSCLC
[27] = system: OVCAR-5 ovarian
[28] = system: IGROV1 ovarian
[29] = system: NCI-H460 lung
[30] = system: SK-MEL-5 melanoma
[31] = system: HOP-92 NSCLC
[32] = system: M14 melanoma
[33] = system: HCC-2998 colon
[34] = system: SN12C renal
[35] = system: SK-MEL-28 melanoma
[36] = system: COLO 205 colon
[37] = system: SNB-19 CNS
[38] = system: SF-539 CNS
[39] = system: SR leukemia
[40] = system: HCT-15 colon
[41] = system: DU-145 prostate
[42] = system: SK-MEL-2 melanoma
[43] = system: SW-620 colon
[44] = system: EKVX NSCLC
[45] = system: KM12 colon
[46] = system: RPMI-8226 leukemia
[47] = system: OVCAR-3 ovarian
[48] = system: MDA-MB-435
[49] = system: NCI-H226 lung
[50] = system: HL-60(TB) leukemia
[51] = system: TK-10 renal
[52] = system: RXF 393 renal
[53] = system: SF-268 CNS
[54] = system: HT29 colon
[55] = system: MALME-3M melanoma
[56] = system: MDA-MB-231 breast
[57] = system: NCI-H522 lung
[58] = system: HS 578T breast
[59] = system: OVCAR-4 ovarian

CC(=O)NC(C(=O)N1CCCC1C(=O)OCc1ccccc1)C(C)C (stereo not drawn) (Ac-Val-Pro-OBn; configuration not given here)
inactive: GI50 [1] 80.7 µg/mL (≈ 233 µM) | GI50 [2] 52 µg/mL (≈ 150 µM)

CN1CCN(/C(N)=C(\C#N)C(=O)Nc2ccccc2)CC1
> 100 µM: TGI [3] | TGI [4] | TGI [5] | TGI [6] | TGI [7] | TGI [1] | TGI [8] | TGI [9] | TGI [10] | TGI [11] | TGI [12] | TGI [13] | TGI [14] | TGI [15] | TGI [16] | TGI [17] | TGI [18] | TGI [19] | TGI [20] | TGI [21] | TGI [22] | TGI [23] | TGI [2] | TGI [24] | TGI [25] | TGI [26] | TGI [27] | TGI [28] | TGI [29] | TGI [30] | TGI [31] | TGI [32] | TGI [33] | TGI [34] | TGI [35] | TGI [36] | TGI [37] | TGI [38] | TGI [39] | TGI [40] | TGI [41] | TGI [42] | TGI [43] | TGI [44] | TGI [45] | TGI [46] | TGI [47] | TGI [48] | TGI [49]

Clc1ccc(/C=N/Nc2nnc3c4ccccc4c4ncccc4c3n2)cc1
> 10 µM: TGI [4] | TGI [6] | TGI [7] | TGI [50] | TGI [1] | TGI [8] | TGI [9] | TGI [10] | TGI [11] | TGI [12] | TGI [14] | TGI [17] | TGI [18] | TGI [20] | TGI [51] | TGI [52] | TGI [23] | TGI [53] | TGI [24] | TGI [25] | TGI [26] | TGI [28] | TGI [30] | TGI [32] | TGI [33] | TGI [34] | TGI [35] | TGI [36] | TGI [54] | TGI [39] | TGI [40] | TGI [41] | TGI [43] | TGI [44] | TGI [45] | TGI [46] | TGI [55] | TGI [56]

COc1c(-c2cccs2)oc2c(CC(=O)O)cccc2c1=O
5.92 µM: TGI [46]
> 100 µM: TGI [4] | TGI [5] | TGI [6] | TGI [7] | TGI [50] | TGI [1] | TGI [8] | TGI [11] | TGI [12] | TGI [13] | TGI [14] | TGI [15] | TGI [17] | TGI [18] | TGI [20] | TGI [21] | TGI [51] | TGI [52] | TGI [23] | TGI [2] | TGI [24] | TGI [25] | TGI [26] | TGI [27] | TGI [28] | TGI [30] | TGI [32] | TGI [33] | TGI [34] | TGI [36] | TGI [38] | TGI [39] | TGI [41] | TGI [42] | TGI [57] | TGI [44] | TGI [55] | TGI [56] | TGI [47] | TGI [48]
48.9 µM: TGI [3]

NC(=O)CCC(NC(=O)c1cccc2c(=O)c3ccccc3[nH]c12)C(=O)O (stereo unspecified)
> 100 µM: TGI [3] | TGI [4] | TGI [5] | TGI [6] | TGI [50] | TGI [1] | TGI [9] | TGI [10] | TGI [11] | TGI [12] | TGI [13] | TGI [14] | TGI [15] | TGI [16] | TGI [17] | TGI [18] | TGI [19] | TGI [20] | TGI [51] | TGI [22] | TGI [23] | TGI [53] | TGI [24] | TGI [26] | TGI [27] | TGI [58] | TGI [28] | TGI [30] | TGI [31] | TGI [32] | TGI [34] | TGI [35] | TGI [36] | TGI [54] | TGI [37] | TGI [39] | TGI [40] | TGI [59] | TGI [41] | TGI [42] | TGI [57] | TGI [43] | TGI [44] | TGI [45] | TGI [46] | TGI [55] | TGI [56] | TGI [47] | TGI [48] | TGI [49]
